Data published in patent US20260167622A1, “PAN-KRAS DEGRADING AGENT, AND PREPARATION METHOD THEREFOR AND USE THEREOF” (LEADINGTAC PHARMACEUTICAL (SHAOXING) CO., LTD., priority 2022, published 2026).

Assays:
Assay type in all cases: cell-based
[1] = target: T1, KRAS G12V protein in SW900 cells (Homo sapiens, UniProt P01116, G12V); experiment: KRAS degradation assay (Western Blot) in SW900 cells; settings: 24 h
T1 construct: endogenous in cells; host or cells: SW900
Summary of the method: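 5×10^5 cells/well; cpd 0.03–3000 nM final, 0.25% DMSO, 24 h, 37 °C/5% CO2. RIPA lysis, 5 µg protein/lane, anti-KRAS WB, β-actin loading ref. DC50/Dmax by nonlinear fit.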

[2] = target: T2, KRAS G12D protein in AsPc-1 cells (Homo sapiens, UniProt P01116, G12D); experiment: KRAS degradation assay (Western Blot) in AsPc-1 cells; settings: for DC50: 24 h; for Dmax: ASPC1, 24 h
T2 construct: endogenous in cells; host or cells: AsPc-1
Source text: (§1) Test Example 5: KRAS G12C, KRAS G12D, KRAS G12V, KRAS G13D, and KRAS WT (Expanded) Degradation Assays
(§2) The degradation effect of the compounds on KRAS was investigated on KRAS G12C mutant human non-small cell lung cancer cell NCI-H358, KRAS G12D mutant human metastatic pancreatic cancer cell AsPc-1, KRAS G12D mutant human lung cancer cell A427, KRAS G12V mutant human colorectal cancer cell SW620, KRAS G12V mutant human lung cancer cell SW900, KRAS G13D mutant human colorectal cancer epithelial cell DLD-1, and KRAS WT human gastric cancer cell MKN-1. The specific procedures were as follows: 0.95 mL of cells were seeded into each well of a 24-well cell culture plate to achieve a cell density of 5×10^5 cells/well; and the cell plate was incubated in an incubator at 37° C. with 5% CO2 overnight. Then 50 μL of the compound solution after dilution was added to each of the wells with the corresponding cells, so that the final concentration of the compound was in a range of 0.03-3000 nM. The final concentration of DMSO was 0.25%. After the compounds were added, the cell plate was incubated in an incubator at 37° C. with 5% CO2 for 24 h. The culture medium in the 24-well cell culture plate was then removed, and the plate was washed twice with 1×PBS (KeyGEN). 120 μL of RIPA (strong) lysis buffer (Beyotime) (supplemented with 1 mM phenylmethylsulfonyl fluoride, a protease inhibitor mixture (Beyotime), and a protease phosphatase inhibitor mixture (Beyotime)) was added to lyse adherent SW900 cells at the bottom of the cell culture plate. After the plate was left to stand on ice for 30 min, the protein lysate in each well was transferred to a 1.5 mL centrifuge tube and centrifuged at 15000 g for 20 min at 4° C. The cell lysate supernatants after centrifugation were cryopreserved in a refrigerator at −80° C. for later use.
(§3) After the samples of the cell lysate supernatants that had been prepared were thawed from the refrigerator at −80° C., the total protein concentrations of the cell lysates were determined using a BCA protein quantification kit (Tiangen). The total protein concentrations of the samples were then adjusted to 0.5 μg/μL with PBS and 5×SDS-PAGE protein loading buffer (Beyotime), and the samples were incubated in a water bath at 100° C. for 15 min. The samples were then incubated in an ice bath for 5 min and centrifuged at 14000 g for 1 min at 4° C., and the supernatants were mixed well as loading samples for the Western Blot assay. The samples were loaded into wells of a 10% precast gel (KeyGEN) with a loading volume of 10 μL (total protein: 5 μg), a sufficient Tris-MOPS-SDS running buffer (Adamas) was added, and then electrophoresis was performed at a constant voltage of 120 V for 55 min. After the electrophoresis, the proteins on the gel were transferred to PVDF membranes at a constant current of 250 mA for 55 min. After the membrane transfer, the PVDF membranes were incubated in 1× Quick Block blocking buffer (Beyotime)at room temperature for 30 min. After the blocking, the PVDF membranes were separately incubated at 4° C. overnight with the KRAS antibody (Abcam) diluted in a ratio of 1:1000 and the β-actin antibody (Abcam) diluted in a ratio of 1:2000 in 5% BSA as the diluent, and then washed with 1×TBST buffer (2.4 g of Tris, 8.8 g of NaCl, 1.5 mL of Tween 20, with pH adjusted to 7.4, with the volume brought to 1 L) 3 times for 10 min/time. The membranes were incubated with a secondary antibody (Abcam) diluted in 5% BSA at room temperature for 2 h, and then washed with 1×TBST buffer 3 times for 10 min/time. Finally, the membranes were incubated with Clarity Western ECL Substrate (BIO-RAD) for 5 min for luminescence and color development, and a ChemiScope 6200 Touch chemiluminescence imaging system (Clinx) was used for color development and protein mapping. Gray value analysis of the protein maps was performed using the chemiluminescence analysis software (Clinx). […]

[3] = system: KRAS G12D mutant human lung cancer cell A427; experiment: 3D cell proliferation inhibition assay, A427; settings: A-427, 168 h, 3D culture, 7 days, CTG
Summary of the method: (§4)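 Cells seeded in low-adsorption plates at 5×10^2 cells/well (MKN1 1×10^3) with compounds at final 10000–0.026 nM, 0.2% DMSO, 3D culture 7 days at 37 °C. Viability by CellTiter-Glo luminescence; inhibition normalised to DMSO and medium-only controls, IC50 from nonlinear log-concentration fit.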

[4] = system: KRAS G12D mutant human gastric cancer cell AGS; experiment: 3D cell proliferation inhibition assay, AGS; settings: 168 h, 3D culture, 7 days, CTG
Summary of the method: as §4

[5] = system: KRAS G12D mutant human metastatic pancreatic cancer cell AsPc-1; experiment: 3D cell proliferation inhibition assay, AsPc-1; settings: ASPC1, 168 h, 3D culture, 7 days, CTG
Summary of the method: as §4

[6] = system: KRAS G12C mutant human non-small cell lung cancer cell NCI-H358; experiment: 3D cell proliferation inhibition assay, NCI-H358; settings: NCI-H358, 168 h, 3D culture, 7 days, CTG
Summary of the method: as §4

[7] = system: KRAS G12V mutant human lung squamous carcinoma cell SW900; experiment: 3D cell proliferation inhibition assay, SW900; settings: SW900, 168 h, 3D culture, 7 days, CTG
[8] = system: KRAS G12V mutant human colorectal cancer cell SW620; experiment: 3D cell proliferation inhibition assay, SW620; settings: SW-620, 168 h, 3D culture, 7 days, CTG
Summary of the method: as §4

[9] = system: KRAS WT human gastric cancer cell MKN1; experiment: 3D cell proliferation inhibition assay, MKN1; settings: MKN-1, 168 h, 3D culture, 7 days, CTG
Summary of the method: as §4

[10] = system: KRAS G13D mutant human colorectal cancer epithelial cell DLD-1; experiment: 3D cell proliferation inhibition assay, DLD-1; settings: DLD-1, 168 h, 3D culture, 7 days, CTG
Summary of the method: as §4

[11] = target: T3, KRAS G13D protein in DLD-1 cells (Homo sapiens, UniProt P01116, G13D); experiment: KRAS degradation assay (Western Blot) in DLD-1 cells; settings: 24 h
T3 construct: endogenous in cells; host or cells: DLD-1
Source text: as §1, §2, §3

[12] = target: T4, KRAS G12V protein in SW620 cells (Homo sapiens, UniProt P01116, G12V); experiment: KRAS degradation assay (Western Blot) in SW620 cells
T4 construct: endogenous in cells; host or cells: SW620
Summary of the method: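 Western blot read-out: KRAS band gray value divided by β-actin, compared with DMSO control to give degradation rate. DC50 and Dmax came from log concentration–response fits after 24 h compound exposure (0.03–3000 nM final, 0.25% DMSO) at 37 °C, 5% CO2.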

T1 sequence (P01116 1-188 isoform P01116-2 G12V): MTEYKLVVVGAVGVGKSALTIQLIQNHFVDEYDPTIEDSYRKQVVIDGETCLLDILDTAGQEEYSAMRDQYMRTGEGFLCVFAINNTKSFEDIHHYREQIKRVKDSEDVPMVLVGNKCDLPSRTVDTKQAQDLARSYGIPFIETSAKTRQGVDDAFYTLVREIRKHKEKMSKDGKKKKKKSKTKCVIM
T2 sequence (P01116 1-188 isoform P01116-2 G12D): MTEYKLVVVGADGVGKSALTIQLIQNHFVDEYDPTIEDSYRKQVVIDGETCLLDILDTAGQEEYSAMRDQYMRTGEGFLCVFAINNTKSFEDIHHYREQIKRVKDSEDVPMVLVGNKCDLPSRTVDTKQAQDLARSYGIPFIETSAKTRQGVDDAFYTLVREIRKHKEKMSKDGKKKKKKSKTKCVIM
T3 sequence (P01116 1-188 isoform P01116-2 G13D): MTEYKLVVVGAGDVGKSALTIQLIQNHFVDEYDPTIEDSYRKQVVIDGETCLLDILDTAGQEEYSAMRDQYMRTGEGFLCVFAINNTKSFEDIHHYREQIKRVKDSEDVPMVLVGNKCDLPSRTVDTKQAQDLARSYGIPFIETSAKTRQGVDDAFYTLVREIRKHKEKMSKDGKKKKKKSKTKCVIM
T4 sequence (P01116 1-188 isoform P01116-2 G12V): as the sequence (P01116 1-188 isoform P01116-2 G12V) above

Row | DC50 [1] | Dmax [1] | DC50 [2] | Dmax [2] | IC50 [3] | IC50 [4] | IC50 [5] | IC50 [6] | IC50 [7] | IC50 [8] | IC50 [9] | IC50 [10] | DC50 [11] | Dmax [11] | DC50 ([12]; 24 h) | Dmax ([12]; SW-620, 24 h) | Structure (SMILES)
1 | 251 nM | 71% | 185 nM | 89% | 564 nM | 588 nM | 368 nM | 420 nM | 235 nM | 285 nM | 367 nM |  |  |  |  |  | C#Cc1c(F)ccc2cc(O)cc(-c3ncc4c(N5CCCC(C)(N)C5)nc(OCC5(CN6CCN(CC7CCC8(CC7)CCN(C(=O)c7ccc(OC)c(N9CCC(=O)NC9=O)c7)CC8)CC6)CC5)nc4c3F)c12 (stereo not drawn) [Example 163, 1-(5-(9-((4-((1-(((4-(3-amino-3-methylpiperidin-1-yl)-7-(8-ethynyl-7-fluoro-3-hydroxynaphthalen-1-yl)-8-fluoropyrido[4,3-d]pyrimidin-2-yl)oxy)methyl)cyclopropyl)methyl)piperazin-1-yl)methyl)-3-azaspiro[5.5]undecane-3-carbonyl)-2-methoxyphenyl)dihydropyrimidine-2,4(1H,3H)-dione]
2 | 62.9 nM | 75.3% | 822 nM | 57% |  |  |  | 67.4 nM | 527 nM | 27.4 nM | 39.2 nM | 46.1 nM |  |  |  |  | CCc1cccc2cc(O)cc(-c3ccc4c(N5CCC[C@@](C)(O)C5)nc(OCC5(CN6CCN(CC7CCC8(CC7)CCN(C(=O)c7ccc(C)c(N9CCC(=O)NC9=O)c7)CC8)CC6)CC5)nc4c3F)c12 [Example 49, (R)-1-(5-(9-((4-((1-(((7-(8-ethyl-3-hydroxynaphthalen-1-yl)-8-fluoro-4-(3-hydroxy-3-methylpiperidin-1-yl)quinazolin-2-yl)oxy)methyl)cyclopropyl)methyl)piperazin-1-yl)methyl)-3-azaspiro[5.5]undecane-3-carbonyl)-2-methylphenyl)dihydropyrimidine-2,4(1H,3H)-dione]
3 | 5.9 nM | 100% | 13.4 nM | 100% | 108 nM | 27.8 nM | 18.6 nM | 7.23 nM | 15.6 nM | 4.58 nM | 52.5 nM | 18.9 nM |  |  | 7.6 nM | 100% | C#Cc1c(F)ccc2cc(O)cc(-c3ncc4c(N5CCOCC(C)(O)C5)nc(OCC5(CN6CCN(CC7CCC8(CC7)CCN(C(=O)c7ccc(OC)c(N9CCC(=O)NC9=O)c7)CC8)CC6)CC5)nc4c3F)c12 (stereo not drawn) [Example 165, 1-(5-(9-((4-((1-(((7-(8-ethynyl-7-fluoro-3-hydroxynaphthalen-1-yl)-8-fluoro-4-(6-hydroxy-6-methyl-1,4-oxazepan-4-yl)pyrido[4,3-d]pyrimidin-2-yl)oxy)methyl)cyclopropyl)methyl)piperazin-1-yl)methyl)-3-azaspiro[5.5]undecane-3-carbonyl)-2-methoxyphenyl)dihydropyrimidine-2,4(1H,3H)-dione]

Second part, the molecule before the results:

Row | Structure (SMILES) | DC50 [1] | Dmax [1] | DC50 [2] | Dmax [2] | IC50 [3] | IC50 [4] | IC50 [5] | IC50 [6] | IC50 [7] | IC50 [8] | IC50 [9] | IC50 [10] | DC50 [11] | Dmax [11] | DC50 ([12]; 24 h) | Dmax ([12]; SW-620, 24 h)
4 | C#Cc1cccc2cc(O)cc(-c3ncc4c(N5CCCOCC5)nc(OCC5(CN6CCN(CC7CCC8(CC7)CCN(C(=O)c7ccc(OC)c(N9CCC(=O)NC9=O)c7)CC8)CC6)CC5)nc4c3F)c12 [Example 39, 1-(5-(9-((4-((1-(((7-(8-ethynyl-3-hydroxynaphthalen-1-yl)-8-fluoro-4-(1,4-oxazepan-4-yl)pyrido[4,3-d]pyrimidin-2-yl)oxy)methyl)cyclopropyl)methyl)piperazin-1-yl)methyl)-3-azaspiro[5.5]undecane-3-carbonyl)-2-methoxyphenyl)dihydropyrimidine-2,4(1H,3H)-dione] | ≤ 50 nM | 80 to 100% | ≤ 50 nM | 50 to 80% |  |  |  | 11.6 nM |  | 35.6 nM |  | 86.6 nM |  |  |  | 
5 | CCc1c(F)ccc2cc(O)cc(-c3ncc4c(N5CCC[C@@](C)(O)C5)nc(OCC5(CN6CCN(CC7CCC8(CC7)CCN(C(=O)c7ccc(OC)c(N9CCC(=O)NC9=O)c7)CC8)CC6)CC5)nc4c3F)c12 [Example 42, (R)-1-(5-(9-((4-((1-(((7-(8-ethyl-7-fluoro-3-hydroxynaphthalen-1-yl)-8-fluoro-4-(3-hydroxy-3-methylpiperidin-1-yl)pyrido[4,3-d]pyrimidin-2-yl)oxy)methyl)cyclopropyl)methyl)piperazin-1-yl)methyl)-3-azaspiro[5.5]undecane-3-carbonyl)-2-methoxyphenyl)dihydropyrimidine-2,4(1H,3H)-dione] | ≤ 50 nM | 80 to 100% |  |  | 100 to 500 nM | ≤ 50 nM | ≤ 50 nM | ≤ 50 nM | ≤ 50 nM | 2.15 nM | ≤ 50 nM | ≤ 50 nM | ≤ 50 nM | 80 to 100% |  | 
6 | CCc1c(F)ccc2cc(O)cc(-c3ncc4c(N5CCC[C@@](C)(O)C5)nc(OCC5(CN6CCN(CC7CCC8(CC7)CCN(C(=O)c7ccc(C)c(N9CCC(=O)NC9=O)c7)CC8)CC6)CC5)nc4c3F)c12 [Example 19, (R)-1-(5-(9-((4-((1-(((7-(8-ethyl-7-fluoro-3-hydroxynaphthalen-1-yl)-8-fluoro-4-(3-hydroxy-3-methylpiperidin-1-yl)pyrido[4,3-d]pyrimidin-2-yl)oxy)methyl)cyclopropyl)methyl)piperazin-1-yl)methyl)-3-azaspiro[5.5]undecane-3-carbonyl)-2-methylphenyl)dihydropyrimidine-2,4(1H,3H)-dione] | ≤ 50 nM | 80 to 100% |  |  | 100 to 500 nM | ≤ 50 nM | ≤ 50 nM | ≤ 50 nM | ≤ 50 nM | 0.82 nM | ≤ 50 nM | ≤ 50 nM |  |  |  | 
